Experimental data reported in patent US6448274B2, “Fluoroalkoxy-substituted benzamide dichloropyridinyl N-oxide PDE4 inhibitor” (Merck Frosst Canada & Co., priority 2000, dated 2002).
Read-outs that look alike come from different tables or passages of the source.

Tests used:
[1] = tested on: duration of anesthesia induced by the combination of xylazine and ketamine in rats; experiment: Effect on duration of anesthesia induced by xylazine and ketamine; type: in vivo, Male Sprague-Dawley rats; settings: 3 mg/kg i.p.; for Duration of anesthesia (min), Compound treated group: n = 5, mean ± S.E.M., return of righting reflex as endpoint; for Effect on duration of anaesthesia (in words): n=5
Protocol: (§1) Compound I of the present invention was compared to Compound II by testing the for effects on the duration of anesthesia induced by the combination of xylazine and ketamine in rats. Male Sprague-Dawley rats were anaesthetised with a combination of xylazine (10 mg/kg) and ketamine (10 mg/kg) administered in a single intramuscular injection in the back hindlimb. Fifteen minutes later, the drug to be tested or its vehicle was injected intraperitoneally (dosing volume=1 ml/kg) and the animals were placed in dorsal recumbence. The compounds were dissolved immediately before use in polyethylene glycol (M.W. 200). The return of the righting reflex (i.e. when the animal no longer remained on its back and turned itself spontaneously to the prone position) was used as an endpoint to determine the duration of anaesthesia.
(§2) At the end of the experiment, at 60 minutes post-dosing, plasma and brain samples were taken for drug concentration determination.

[2] = Plasma and brain concentrations at 60 minutes post-dosing; type: in vivo; settings: male, Sprague-Dawley, rat, ip, rats, 3 mg/kg i.p.; for Kp at 60 min: brain and plasma, n=5
Protocol: as §1, §2
However, the distribution to the brain was very different for each compound.

[3] = brain, n=5, read-out: Brain concentration
[4] = plasma, n=5, read-out: Plasma concentration

SMILES	Inhibition % (of duration of anesthesia vs vehicle treated group) [1]	Duration of anesthesia (min), Compound treated group [1]	Effect on duration of anaesthesia (in words) [1]	Kp at 60 min [2]	concentration at 60 min [2, 3]	concentration at 60 min [2, 4]
O=C(Nc1c(Cl)c[n+]([O-])cc1Cl)c1ccc(OC(F)F)c(OCC2CC2)c1 [Compound Formula I, N-(3,5-Dichloro-1-oxido-pyridin-4-yl)-4-difluoromethoxy-3-cyclopropylmethoxybenzamide]	15.6%	37.40 ± 7.83 min	did not significantly modify the duration of anaesthesia	0.0938	410 ± 150 nM	4370 ± 1650 nM
O=C(Nc1c(Cl)cncc1Cl)c1ccc(OC(F)F)c(OCC2CC2)c1 [Compound Formula II, N-(3,5-Dichloropyridin-4-yl)-4-difluoromethoxy-3-cyclopropylmethoxybenzamide]	54.7%	19.20 ± 4.68 min	significant reduction in the duration of the anaesthesia	0.75	150 ± 50 nM	200 ± 80 nM
